# Experimental data reported in PMC10147046, “Assessment of Various Food Proteins as Structural Materials for Delivery of Hydrophobic Polyphenols Using a Novel Co-Precipitation Method” (Molecules, 2023).
# Columns and labels:
# [1] = reference compounds of Table 1; one cell merged over all four solubility columns; no source or measurement printed; cited from earlier work
# [2] = Solubility of the powders in water (phosphate buffer), HPLC quantification; format: physicochemical; conditions: for solubility at 24 h: aqueous buffer, thermodynamic from solid; for Increase in solubility of co-precipitate compared to intrinsic (untreated) solubility: polyphenol co-precipitated with protein and trehalose vs untreated, phosphate buffer pH 7.0
# Procedure: To measure the amount of the polyphenol entrapped inside the NaCas, SPI, and WPI precipitates (entrapment efficiency), the concentration of each polyphenol in the supernatants was determined by high-performance liquid chromatography (HPLC) following different methods (depending on the polyphenol). The HPLC instrument was equipped with a UV/visible diode array detector (Agilent Technologies, 1200 Series, Santa Clara, CA, USA). The column was a reverse-phase PrevailTM C18 with dimensions of 4.6 cm × 150 mm and 5 µm particle size (Grace Alltech, Columbia, MD, USA). The composition and conditions of the mobile phase varied based on the method used for the quantification of each polyphenol. […] The sample injection volume for all cases was 20 µL. Different polyphenols were detected at different wavelengths and different retention times; e.g., naringenin and rutin were detected at 10.15 and 4.8 min, respectively. For the calibration of the HPLC column and quantification of each polyphenol in the samples, standard solutions of various concentrations of pure polyphenols (94 to 98%) in the mobile phase were used. […] Thermo Scientific, Waltham, MA, USA) before injecting them into the HPLC column. […] The dispersibility of the lyophilized powders and the untreated samples was measured according to the method from Ji et al.. For this purpose, we used a Malvern Mastersizer 2000 (Malvern Instruments Ltd., Worcestershire, UK), which was equipped with a 4 mW He–Ne laser operating apparatus. […] To avoid artifacts (large lumps) from the initial dispersion, the Time 0 min measurement was removed, and the data from 2 to 60 min were collected. A separate normalization was applied to the obscuration indices across the dispersion period for each sample by dividing each index by the maximum index. Finally, the volume distribution data were multiplied by the normalized obscuration index at each time point.
# [3] = Dispersibility in water: particle size distribution over time (Malvern Mastersizer 2000); format: physicochemical; conditions: for Particle size after treatment in the absence of trehalose: polyphenol precipitate without protein and without trehalose; for Dispersibility of untreated polyphenol: untreated powder, phosphate buffer pH 7.0, over 60 min; for Size of additional significant particle population after treatment: distribution at least bi-modal; for Particle size reached over time, WPI co-precipitates: over 60 min
# Procedure: The particle size distribution of untreated (control) polyphenols vs. the polyphenols co-precipitated with NaCas, SPI, and WPI after dispersion in phosphate buffer (pH 7.0) is presented in Figure 4. As stated in Section 3.6, in the case of the current research, we measured dispersibility based on the decrease in the size of particles dispersed in the aqueous medium over time.
# The dispersibility of the lyophilized powders and the untreated samples was measured according to the method from Ji et al.. For this purpose, we used a Malvern Mastersizer 2000 (Malvern Instruments Ltd., Worcestershire, UK), which was equipped with a 4 mW He–Ne laser operating apparatus. To start with, about 30 mg of each powder was added to the dispersion unit containing phosphate buffer (10 mM NaH2PO4, pH 7.0), and this mixture was stirred (2000 rpm) for 60 min. The particle size distribution obscuration values of each sample were read at 2 min intervals and a wavelength of 632.8 nm. To avoid artifacts (large lumps) from the initial dispersion, the Time 0 min measurement was removed, and the data from 2 to 60 min were collected. A separate normalization was applied to the obscuration indices across the dispersion period for each sample by dividing each index by the maximum index. Finally, the volume distribution data were multiplied by the normalized obscuration index at each time point.
# [4] = source not given; cited from earlier work
# [5] = parameters: method as in PMID 30724197; conditions: cited from earlier work
# [6] = parameters: method as in PMID 35056844; conditions: rutin dissolved in solution maintained at pH 11.0 for 30 min; cited from earlier work
# [7] = untreated (commercial) polyphenol, phosphate buffer pH 7.0, 25 °C
# [8] = polyphenol precipitate without protein, absence of trehalose
Molecule,"solubility at 24 h [2, 7] [µg/mL]",Dispersibility of untreated polyphenol [3],Solubility in ethanol [4],"Size of additional significant particle population after treatment [3, 8] [µm]",further results
"Oc1ccc(-c2ccc(O)cc2O)c(O)c1 [[1,1′-Biphenyl]-2,2′,4,4′-tetrol]",–,–,–,–,"Solubility (reference compounds, in words) [1]: low?"
COc1ccc([C@@H]2CC(=O)c3c(O)cc(O[C@@H]4O[C@H](CO[C@@H]5O[C@@H](C)[C@H](O)[C@@H](O)[C@H]5O)[C@@H](O)[C@H](O)[C@H]4O)cc3O2)cc1O [Hesperidin],2,"None of the untreated forms of rutin, naringenin, hesperidin, and curcumin (Figure 4) showed any significant dispersibility over 60 min",~1000 µg/mL,–,"Particle size after treatment in the absence of trehalose [3]: 30 μm; Particle size, untreated polyphenol ([3]; untreated powder dispersed in phosphate buffer): ~ 60 μm"
Curcumin,–,"None of the untreated forms of rutin, naringenin, hesperidin, and curcumin (Figure 4) showed any significant dispersibility over 60 min",~10000 µg/mL,–,"Increase in solubility of co-precipitate compared to intrinsic (untreated) solubility [2]: ~10 fold; Solubility (Untreated) [2, 7]: 8 µg/mL; Size of minor particle population after treatment [3, 8]: ~ 160 μm"
O=c1c(-c2ccc(O)cc2)coc2cc(O)ccc12 [daidzein],–,–,–,–,"Enhancement of daidzein solubility ([5]; WPI nanoparticles formed in the presence of daidzein): at least 2 fold; Stability ([5]; WPI-daidzein nanoparticles, 4 °C): stable at 4 °C for at least two months"
"Oc1cc(O)c2c(c1)O[C@H](c1ccc(O)c(O)c1)[C@@H](O)C2 [Catechin, (+)-catechin]",1.5,showed some dispersibility,~100000 µg/mL,~0.1,Increase in solubility of co-precipitate compared to intrinsic (untreated) solubility [2]: ~10 fold
"O=C1C[C@@H](c2ccc(O)cc2)Oc2cc(O)cc(O)c21 [Naringenin, (S)-naringenin]",2,"None of the untreated forms of rutin, naringenin, hesperidin, and curcumin (Figure 4) showed any significant dispersibility over 60 min",~1000 µg/mL,~0.1,"Particle size reached over time, WPI co-precipitates [3]: less than 1 μm; Particle size after treatment in the absence of trehalose [3]: ~ 6 μm"
C[C@@H]1O[C@@H](OC[C@H]2O[C@@H](Oc3c(-c4ccc(O)c(O)c4)oc4cc(O)cc(O)c4c3=O)[C@H](O)[C@@H](O)[C@@H]2O)[C@H](O)[C@H](O)[C@H]1O [Rutin],110,"None of the untreated forms of rutin, naringenin, hesperidin, and curcumin (Figure 4) showed any significant dispersibility over 60 min",about 4 mg/mL,~0.1,"Particle size reached over time, WPI co-precipitates [3]: less than 1 μm; Size of smaller particles favoured over time, NaCas co-precipitate ([3]; co-precipitate with NaCas, redistribution of particle size over time): 0.1 μm; Effect of treatment (no protein) on dispersibility ([3]; treated polyphenol precipitates with or without trehalose): Treatment improved the dispersibility only of rutin; Degradation [6]: approximately 10%"
